Reference: PubChem BioAssay AID1919014 (Molecular Pharmacology Branch, DTP, NCI, 2023)
pIC50: −log10 of the molar value.

Test system: NCI-H1341 complex spheroids, percent test/control
Assay: Anticancer human tumor NCI-H1341 cell line growth inhibition [AhR];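 further: spheroids exposed to agents for seven days before readout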
Settings: for pIC50: curve of first compound; for viability, T/C: stronger effect = lower value
How it was run: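 Agents were dosed in half-log steps down from roughly clinical Cmax, or from 10 microM where Cmax was unknown, alone and with AhR antagonists. Read-out: percent test/control growth of tumor spheroids containing HUVEC and MSC stromal cells.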

[1] = second compound 0.1 µM, first compound 0.00316 µM
[2] = second compound 0.1 µM, first compound 0.01 µM
[3] = second compound 0.1 µM, first compound 0.0316 µM
[4] = second compound 0.1 µM, first compound 0.1 µM
[5] = second compound 0.316 µM, first compound 0.00316 µM
[6] = second compound 0.316 µM, first compound 0.01 µM
[7] = second compound 0.316 µM, first compound 0.0316 µM
[8] = second compound 0.316 µM, first compound 0.1 µM
[9] = second compound 1 µM, first compound 0.00316 µM
[10] = second compound 1 µM, first compound 0.01 µM
[11] = second compound 1 µM, first compound 0.0316 µM
[12] = second compound 1 µM, first compound 0.1 µM
[13] = second compound 3.16 µM, first compound 0.00316 µM
[14] = second compound 3.16 µM, first compound 0.01 µM
[15] = second compound 3.16 µM, first compound 0.0316 µM
[16] = second compound 3.16 µM, first compound 0.1 µM
[17] = second compound 10 µM, first compound 0.00316 µM
[18] = second compound 10 µM, first compound 0.01 µM
[19] = second compound 10 µM, first compound 0.0316 µM
[20] = second compound 10 µM, first compound 0.1 µM
[21] = second compound 0.1 µM, first compound 0.316 µM
[22] = second compound 0.1 µM, first compound 1 µM
[23] = second compound 0.1 µM, first compound 3.16 µM
[24] = second compound 0.1 µM, first compound 10 µM
[25] = second compound 0.316 µM, first compound 0.316 µM
[26] = second compound 0.316 µM, first compound 1 µM
[27] = second compound 0.316 µM, first compound 3.16 µM
[28] = second compound 0.316 µM, first compound 10 µM
[29] = second compound 1 µM, first compound 0.316 µM
[30] = second compound 1 µM, first compound 1 µM
[31] = second compound 1 µM, first compound 3.16 µM
[32] = second compound 1 µM, first compound 10 µM
[33] = second compound 3.16 µM, first compound 0.316 µM
[34] = second compound 3.16 µM, first compound 1 µM
[35] = second compound 3.16 µM, first compound 3.16 µM
[36] = second compound 3.16 µM, first compound 10 µM
[37] = second compound 10 µM, first compound 0.316 µM
[38] = second compound 10 µM, first compound 1 µM
[39] = second compound 10 µM, first compound 3.16 µM
[40] = second compound 10 µM, first compound 10 µM

SMILES	pIC50 (second compound 0.1 µM)	pIC50 (second compound 0.316 µM)	pIC50 (second compound 1 µM)	pIC50 (second compound 3.16 µM)	pIC50 (second compound 10 µM)	viability, T/C [3]	viability, T/C [4]	viability, T/C [7]	viability, T/C [8]	viability, T/C [11]	viability, T/C [12]	viability, T/C [15]	viability, T/C [16]	viability, T/C [19]	viability, T/C [20]	viability, T/C [21]	viability, T/C [22]	viability, T/C [25]	viability, T/C [26]	viability, T/C [29]	other results
CC[C@@]1(O)C(=O)OCc2c1cc1n(c2=O)Cc2cc3c(CN(C)C)c(O)ccc3nc2-1 + Cc1ccccc1N=Nc1ccc(NC(=O)c2ccnn2C)c(C)c1	7.23	< 7.00	7.17	< 7.00	7.45	51.8%	47.5%	49.9%	52.9%	57.2%	45.8%	45.2%	52.9%	49.6%	48.6%						viability, T/C (second compound 0.1 µM, first compound 0.000316 µM): 103%; viability, T/C (second compound 0.1 µM, first compound 0.001 µM): 99.8%; viability, T/C [1]: 91.1%; viability, T/C [2]: 80.2%; viability, T/C (second compound 0.316 µM, first compound 0.000316 µM): 99.5%; viability, T/C (second compound 0.316 µM, first compound 0.001 µM): 83.4%; viability, T/C [5]: 97.7%; viability, T/C [6]: 74.6%; viability, T/C (second compound 1 µM, first compound 0.000316 µM): 97.4%; viability, T/C (second compound 1 µM, first compound 0.001 µM): 83.5%; viability, T/C [9]: 82.3%; viability, T/C [10]: 70.2%; viability, T/C (second compound 3.16 µM, first compound 0.000316 µM): 76.6%; viability, T/C (second compound 3.16 µM, first compound 0.001 µM): 94.7%; viability, T/C [13]: 65.5%; viability, T/C [14]: 64.2%; viability, T/C (second compound 10 µM, first compound 0.000316 µM): 46.4%; viability, T/C (second compound 10 µM, first compound 0.001 µM): 58%; viability, T/C [17]: 51.6%; viability, T/C [18]: 49.8%
COc1cc(C2c3cc4c(cc3C(OC3OC5COC(C)OC5C(O)C3O)C3COC(=O)C23)OCO4)cc(OC)c1O (stereo not given) + Cc1ccccc1N=Nc1ccc(NC(=O)c2ccnn2C)c(C)c1	6.08	5.00	6.14	6.59	> 7.50	92.2%	82.4%	71.3%	79%	90.1%	88.5%	66.6%	68.4%	45.2%	46.6%	56%	46%	57.1%	50.4%	58.2%	viability, T/C [23]: 46.3%; viability, T/C [24]: 53.4%; viability, T/C [27]: 54.6%; viability, T/C [28]: 48.9%; viability, T/C [30]: 50.2%; viability, T/C [31]: 44.7%; viability, T/C [32]: 44.5%; viability, T/C [33]: 43.3%; viability, T/C [34]: 43.5%; viability, T/C [35]: 46.9%; viability, T/C [36]: 50.2%; viability, T/C [37]: 57.1%; viability, T/C [38]: 44.6%; viability, T/C [39]: 40.1%; viability, T/C [40]: 49.9%
Nc1ccn(C2OC(CO)C(O)C2(F)F)c(=O)n1 (stereo not given) + Cc1ccccc1N=Nc1ccc(NC(=O)c2ccnn2C)c(C)c1	> 7.50	> 7.50	> 7.50	> 7.50	> 7.50	33.4%	38.5%	40.3%	38%	43%	42.7%	45%	38.5%	44.2%	40.4%	43.6%	34.7%	34.7%	39.6%	35.5%	viability, T/C [23]: 32.5%; viability, T/C [24]: 34.7%; viability, T/C [27]: 31.6%; viability, T/C [28]: 38.5%; viability, T/C [30]: 32.3%; viability, T/C [31]: 31.1%; viability, T/C [32]: 35.3%; viability, T/C [33]: 38.7%; viability, T/C [34]: 32.3%; viability, T/C [35]: 36.9%; viability, T/C [36]: 32.5%; viability, T/C [37]: 41.4%; viability, T/C [38]: 34.9%; viability, T/C [39]: 29.7%; viability, T/C [40]: 39.3%
Nc1ncn(C2CC(O)C(CO)O2)c(=O)n1 (stereo not given) + Cc1ccccc1N=Nc1ccc(NC(=O)c2ccnn2C)c(C)c1	< 6.00	< 6.00	< 6.00	6.12	6.87	84.1%	63.7%	100%	79.2%	81%	60.2%	68.5%	61.8%	61.8%	49.9%	59.6%	51%	53.8%	51%	63%	viability, T/C [1]: 102%; viability, T/C [2]: 103%; viability, T/C [5]: 102%; viability, T/C [6]: 101%; viability, T/C [9]: 100%; viability, T/C [10]: 97%; viability, T/C [30]: 54.5%; viability, T/C [13]: 81.4%; viability, T/C [14]: 77%; viability, T/C [33]: 53.1%; viability, T/C [34]: 49.7%; viability, T/C [17]: 70.6%; viability, T/C [18]: 54.9%; viability, T/C [37]: 47.8%; viability, T/C [38]: 42.1%
